# Tests used:
# [1] = target: T1, Vascular endothelial growth factor receptor 2 (Homo sapiens, UniProt P35968)
# [2] = target: T1, Vascular endothelial growth factor receptor 2; remark: listed apart in the source
# Description: Inhibition of human N-terminal His-tagged non-phosphorylated VEGFR2 assessed as dissociation half life after 60 mins by ligand displacement based enzyme-inhibitor dilution assay
# [3] = target: T1, Vascular endothelial growth factor receptor 2; remark: listed apart in the source
# [4] = target: T1, Vascular endothelial growth factor receptor 2; remark: listed apart in the source
# Description: Inhibition of human N-terminal His-tagged phosphorylated VEGFR2 assessed as dissociation half life after 60 mins by ligand displacement based enzyme-inhibitor dilution assay
# [5] = target: T1, Vascular endothelial growth factor receptor 2; assay: Inhibition of human N-terminal His-tagged non-phosphorylated VEGFR2 after 60 mins by ligand displacement based enzyme-inhibitor dilution assay
# [6] = target: T1, Vascular endothelial growth factor receptor 2; assay: Inhibition of human N-terminal His-tagged non-phosphorylated VEGFR2 preincubated for 120 mins in presence of ATP by AlphaScreen analysis
# [7] = target: T1, Vascular endothelial growth factor receptor 2; remark: listed apart in the source
# Description: Inhibition of human N-terminal His-tagged non-phosphorylated VEGFR2 assessed as dissociation half life
# [8] = target: T1, Vascular endothelial growth factor receptor 2; assay: Inhibition of human N-terminal His-tagged non-phosphorylated VEGFR2 after 10 mins by Global fit analysis
# [9] = target: T1, Vascular endothelial growth factor receptor 2; assay: Inhibition of human N-terminal His-tagged phosphorylated VEGFR2 preincubated for 120 mins in presence of ATP by AlphaScreen analysis
# [10] = target: T1, Vascular endothelial growth factor receptor 2; assay: Binding affinity to human N-terminal His-tagged non-phosphorylated VEGFR2 assessed as dissociation rate constant by surface plasmon resonance analysis
# [11] = target: T1, Vascular endothelial growth factor receptor 2; remark: listed apart in the source
# Description: Binding affinity to human N-terminal His-tagged non-phosphorylated VEGFR2 assessed as association constant by surface plasmon resonance analysis
# [12] = target: T1, Vascular endothelial growth factor receptor 2; assay: Inhibition of human N-terminal His-tagged phosphorylated VEGFR2 in presence of ATP measured without preincubation by AlphaScreen analysis
# [13] = target: T1, Vascular endothelial growth factor receptor 2; assay: Inhibition of human N-terminal His-tagged non-phosphorylated VEGFR2 after 60 mins by activity based 100 fold dilution assay
# [14] = target: T1, Vascular endothelial growth factor receptor 2; assay: Binding affinity to human N-terminal His-tagged non-phosphorylated VEGFR2 by surface plasmon resonance analysis
# [15] = target: T1, Vascular endothelial growth factor receptor 2; assay: Inhibition of human N-terminal His-tagged non-phosphorylated VEGFR2 in presence of ATP measured without preincubation by AlphaScreen analysis
# T1 sequence (P35968 whole entry): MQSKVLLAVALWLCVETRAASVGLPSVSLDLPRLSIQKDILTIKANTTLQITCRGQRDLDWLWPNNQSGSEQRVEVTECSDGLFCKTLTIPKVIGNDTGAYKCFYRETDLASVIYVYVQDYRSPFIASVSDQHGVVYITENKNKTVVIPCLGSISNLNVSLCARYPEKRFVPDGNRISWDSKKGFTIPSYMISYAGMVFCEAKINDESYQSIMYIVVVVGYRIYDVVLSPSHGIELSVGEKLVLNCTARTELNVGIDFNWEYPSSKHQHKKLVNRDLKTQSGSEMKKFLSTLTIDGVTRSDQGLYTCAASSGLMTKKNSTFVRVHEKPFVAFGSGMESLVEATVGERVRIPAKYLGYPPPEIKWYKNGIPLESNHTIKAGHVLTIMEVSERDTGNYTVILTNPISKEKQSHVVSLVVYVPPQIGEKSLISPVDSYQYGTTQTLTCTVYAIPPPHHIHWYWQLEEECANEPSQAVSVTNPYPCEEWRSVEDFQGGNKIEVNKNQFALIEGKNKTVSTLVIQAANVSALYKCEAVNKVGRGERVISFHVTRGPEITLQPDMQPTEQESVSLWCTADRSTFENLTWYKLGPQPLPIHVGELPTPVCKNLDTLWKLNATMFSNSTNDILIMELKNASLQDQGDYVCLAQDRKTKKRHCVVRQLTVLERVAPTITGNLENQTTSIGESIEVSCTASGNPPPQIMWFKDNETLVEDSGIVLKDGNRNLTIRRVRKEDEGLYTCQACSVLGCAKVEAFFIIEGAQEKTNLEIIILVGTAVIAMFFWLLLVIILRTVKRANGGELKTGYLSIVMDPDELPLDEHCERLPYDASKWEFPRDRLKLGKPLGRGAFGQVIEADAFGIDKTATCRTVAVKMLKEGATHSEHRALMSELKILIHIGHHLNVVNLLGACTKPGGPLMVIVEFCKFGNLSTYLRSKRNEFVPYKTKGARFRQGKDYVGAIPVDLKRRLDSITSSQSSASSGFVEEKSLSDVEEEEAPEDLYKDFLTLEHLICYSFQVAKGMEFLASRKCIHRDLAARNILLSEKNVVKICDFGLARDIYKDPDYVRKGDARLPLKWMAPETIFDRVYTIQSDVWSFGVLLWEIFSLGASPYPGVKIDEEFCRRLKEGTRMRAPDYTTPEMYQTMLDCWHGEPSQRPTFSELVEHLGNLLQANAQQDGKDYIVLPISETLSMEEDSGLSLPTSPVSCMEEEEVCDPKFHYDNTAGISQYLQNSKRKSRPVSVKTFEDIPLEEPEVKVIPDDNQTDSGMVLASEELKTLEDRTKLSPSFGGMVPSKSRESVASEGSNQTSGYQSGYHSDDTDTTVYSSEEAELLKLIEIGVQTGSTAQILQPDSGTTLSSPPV
Ki [5],IC50 [6],T1/2 [7],Ki [8],IC50 [9],koff [10],Ka [11],IC50 [12],Ki [12],Ki [13],Kd [14],IC50 [15],Structure (SMILES),T1/2 [1],T1/2 [2],T1/2 [3],T1/2 [4]
,,,,,,,,,,,,CN[C@@H]1C[C@H]2O[C@@](C)([C@@H]1OC)n1c3ccccc3c3c4c(c5c6ccccc6n2c5c31)C(=O)NC4,< 5 min,< 5 min,< 5 min,< 5 min
0.044 nM,0.033 nM,1.3 min,4.6 nM,14 nM,0.0031 s⁻¹,1.6 ×10⁵ /M/s,46 nM,23 nM,0.024 nM,19 nM,4.7 nM,Cn1ccc2ncnc(Oc3ccc(NC(=O)Nc4cccc(C(F)(F)F)c4)c(F)c3)c21,260 min,130 min,< 5 min,< 5 min

# — ChEMBL document CHEMBL1817643, “Biochemical characterization of a novel type-II VEGFR2 kinase inhibitor: comparison of binding to non-phosphorylated and phosphorylated VEGFR2” (Bioorg Med Chem, 2011)
